Assay results taken from paper PMC7600788, “Sequence Permutation Generates Peptides with Different Antimicrobial and Antibiofilm Activities” (Pharmaceuticals, 2020).
No end group written: not given here.

Test system: E. coli ATCC 25922
Test: Propidium iodide membrane permeation assay
Format: cell-based, Escherichia coli
Conditions: peptide 3.1 µM, read every 5 min for 2 h
Description: Although not general, cationic antimicrobial peptides frequently target bacterial membranes. A fluorescence-based assay was performed for the determination the membrane active nature of peptides. A rapid increase in the fluorescence was detected as a consequence of peptide treatment at 3.1 µM, indicating membrane damage (Figure 3).
The experiment was performed as previously described with minor modifications. Serially diluted 10× peptides (10 μL each well) were created in 96-well microtiter plates. Propidium iodide (2 μL) at a fixed concentration of 20 μM was added to each well followed by 88 μL of the S. aureus USA300 or E. coli ATCC 25922 culture (a final OD600 ~0.1 in PBS). The plate was incubated at 37 °C with continuous shaking at 100 rpm in a FLUOstar Omega (BMG LABTECH Inc, Cary, NC, USA) microplate reader. The fluorescence from the plate was read every 5 min for a total duration of 2 h with excitation and emission wavelengths of 584 and 620 nm, respectively. Data were analyzed using the MARS data analysis software provided by the manufacturer and representative plots were made using the GraphPad Prism software (version: 7.0).

RKIWWWWL [WW295]
propidium iodide fluorescence buildup (membrane permeation): steady fluorescence buildup
